Test results reported in patent publication US9428504B2, “7-hydroxy-spiropipiperidine indolinyl antagonists of P2Y1 receptor” (BRISTOL-MYERS SQUIBB COMPANY, priority 2012, dated 2016).

Legend:
[1] = target: cloned human P2Y1 receptors (Homo sapiens (Human), UniProt P47900); test: Binding Assay B: Scintillation Proximity Assay (SPA) for P2Y1 binding; conditions: SPA, [33P] 2MeS-ADP displacement; read-out: P2Y1 Ki (nM) using binding assay B
Outline: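 Scintillation proximity readout of 0.3 nM [^33P] tracer displacement from receptor membranes (~15 fmol receptor, 1.7 μg protein). Binding ran 1 h at room temperature to completion; plates were then centrifuged and aqueous phase aspirated before counting.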

[2] = system: human platelet rich plasma (PRP); test: ADP induced platelet aggregation assay; conditions: Homo sapiens, Platelet, read-out: PA IC50 (μM) @ 10 μM ADP, platelet aggregation induced by 10 μM ADP, human PRP

Sequence of cloned human P2Y1 receptors (P47900 whole entry): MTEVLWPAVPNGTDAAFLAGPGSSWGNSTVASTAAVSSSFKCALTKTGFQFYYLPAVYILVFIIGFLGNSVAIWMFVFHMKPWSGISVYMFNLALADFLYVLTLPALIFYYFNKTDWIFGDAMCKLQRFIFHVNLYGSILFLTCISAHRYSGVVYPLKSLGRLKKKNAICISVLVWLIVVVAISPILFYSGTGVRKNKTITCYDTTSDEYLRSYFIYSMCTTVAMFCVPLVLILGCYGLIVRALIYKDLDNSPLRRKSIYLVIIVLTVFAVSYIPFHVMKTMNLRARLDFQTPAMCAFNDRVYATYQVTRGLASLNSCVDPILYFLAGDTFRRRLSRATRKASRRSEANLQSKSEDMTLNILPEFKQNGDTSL

| Compound | Ki [1] [nM] | IC50 [2] [µM] |
| --- | --- | --- |
| CC(C)(C)CN1CCC2(CC1)CN(c1ccccc1NC(=O)Nc1ccc(OC(F)(F)F)cc1)c1c(O)ccc(-c3nc4ccc(Br)cc4s3)c12 [Example 121, 1-(2-(4-(6-Bromobenzo[d]thiazol-2-yl)-7-hydroxy-1′-neopentylspiro[indoline-3,4′-piperidin]-1-yl)phenyl)-3-(4-(trifluoromethoxy)phenyl)urea] | 45.6 | 0.4 |
| CC(C)(C)CN1CCC2(CC1)CN(c1ccccc1NC(=O)Nc1ccc(OC(F)(F)F)cc1)c1c(O)ccc(-c3nc4cccc(Cl)c4s3)c12 [Example 123, 1-(2-(4-(7-Chlorobenzo[d]thiazol-2-yl)-7-hydroxy-1′-neopentylspiro[indoline-3,4′-piperidin]-1-yl)phenyl)-3-(4-(trifluoromethoxy)phenyl)urea] | 32.5 | 0.6 |
| CC(C)(C)CN1CCC2(CC1)CN(c1ccccc1NC(=O)Nc1nc3ccc(Cl)cc3s1)c1c(O)ccc(-c3nc4cccc(Cl)c4s3)c12 [Example 124, 1-(6-Chlorobenzo[d]thiazol-2-yl)-3-(2-(4-(7-chlorobenzo[d]thiazol-2-yl)-7-hydroxy-1′-neopentylspiro[indoline-3,4′-piperidin]-1-yl)phenyl)urea] | 51.5 | 1 |
| CC(C)(C)CN1CCC2(CC1)CN(c1ccccc1NC(=O)Nc1nc3ccc(Cl)nc3s1)c1c(O)ccc(-c3nc4ccc(Cl)cc4s3)c12 [Example 125, 1-(2-(4-(6-Chlorobenzo[d]thiazol-2-yl)-7-hydroxy-1′-neopentylspiro[indoline-3,4′-piperidin]-1-yl)phenyl)-3-(5-chlorothiazolo[5,4-b]pyridin-2-yl)urea] | 21.6 | 0.9 |
| CC(C)(C)CN1CCC2(CC1)CN(c1ccccc1NC(=O)Nc1nc3ccc(Cl)nc3s1)c1c(O)ccc(-c3nc4cc(F)ccc4s3)c12 [Example 126, 1-(5-Chlorothiazolo[5,4-b]pyridin-2-yl)-3-(2-(4-(5-fluorobenzo[d]thiazol-2-yl)-7-hydroxy-1′-neopentylspiro[indoline-3,4′-piperidin]-1-yl)phenyl)urea] | 13.1 | 0.4 |
| COc1ccc2nc(-c3ccc(O)c4c3C3(CCN(CC(C)(C)C)CC3)CN4c3ccccc3NC(=O)Nc3csc(Cl)n3)sc2c1 [Example 128, 1-(2-Chlorothiazol-4-yl)-3-(2-(7-hydroxy-4-(6-methoxybenzo[d]thiazol-2-yl)-1′-neopentylspiro[indoline-3,4′-piperidin]-1-yl)phenyl)urea] | 8 | 0.2 |
| COc1ccc2nc(-c3ccc(O)c4c3C3(CCN(CC(C)(C)C)CC3)CN4c3ccccc3NC(=O)Nc3csc(C(F)(F)F)n3)sc2c1 [Example 129, 1-(2-(7-Hydroxy-4-(6-methoxybenzo[d]thiazol-2-yl)-1′-neopentylspiro[indoline-3,4′-piperidin]-1-yl)phenyl)-3-(2-(trifluoromethyl)thiazol-4-yl)urea] | 8.7 | 0.7 |
| COc1ccc2nc(-c3ccc(O)c4c3C3(CCN(CC(C)(C)C)CC3)CN4c3ccccc3NC(=O)Nc3ccc(OC(F)(F)F)cc3)sc2c1 [Example 130, 1-(2-(7-Hydroxy-4-(6-methoxybenzo[d]thiazol-2-yl)-1′-neopentylspiro[indoline-3,4′-piperidin]-1-yl)phenyl)-3-(4-(trifluoromethoxy)phenyl)urea] | 16.8 | 0.6 |
| COc1ccc2nc(-c3ccc(O)c4c3C3(CCN(CC(C)(C)C)CC3)CN4c3ccccc3NC(=O)Nc3nc4ccc(Cl)cc4s3)sc2c1 [Example 131, 1-(6-Chlorobenzo[d]thiazol-2-yl)-3-(2-(7-hydroxy-4-(6-methoxybenzo[d]thiazol-2-yl)-1′-neopentylspiro[indoline-3,4′-piperidin]-1-yl)phenyl)urea] | 22.5 | 1 |
| CC(C)(C)CN1CCC2(CC1)CN(c1ccccc1NC(=O)Nc1csc(C(F)(F)F)n1)c1c(O)ccc(-c3nc4ccc(F)cc4s3)c12 [Example 132, 1-(2-(4-(6-Fluorobenzo[d]thiazol-2-yl)-7-hydroxy-1′-neopentylspiro[indoline-3,4′-piperidin]-1-yl)phenyl)-3-(2-(trifluoromethyl)thiazol-4-yl)urea] | 12.4 | 0.7 |
| CC(C)(C)CN1CCC2(CC1)CN(c1ccccc1NC(=O)Nc1ccc(OC(F)(F)F)cc1)c1c(O)ccc(-c3nc4cc(F)ccc4s3)c12 [Example 135, 1-(2-(4-(5-Fluorobenzo[d]thiazol-2-yl)-7-hydroxy-1′-neopentylspiro[indoline-3,4′-piperidin]-1-yl)phenyl)-3-(4-(trifluoromethoxy)phenyl)urea] | 21.7 | 0.6 |
| CC(C)(C)CN1CCC2(CC1)CN(c1ccccc1NC(=O)Nc1ccc(OC(F)(F)F)cc1)c1c(O)cc(F)c(-c3nc4cc(Cl)ccc4s3)c12 [Example 137, 1-(2-(4-(5-Chlorobenzo[d]thiazol-2-yl)-5-fluoro-7-hydroxy-1′-neopentylspiro[indoline-3,4′-piperidin]-1-yl)phenyl)-3-(4-(trifluoromethoxy)phenyl)urea] | 44.7 | 0.4 |
| CC(C)(C)CN1CCC2(CC1)CN(c1ccccc1NC(=O)Nc1nc3ccc(F)cc3s1)c1c(O)ccc(-c3nc4cc(F)ccc4s3)c12 [Example 138, 1-(6-Cluorobenzo[d]thiazol-2-yl)-3-(2-(4-(5-fluorobenzo[d]thiazol-2-yl)-7-hydroxy-1′-neopentylspiro[indoline-3,4′-piperidin]-1-yl)phenyl)urea] | 24.6 | 0.2 |
| CC(C)(C)CN1CCC2(CC1)CN(c1ccccc1NC(=O)Nc1nc3ccc(F)cc3s1)c1c(O)cc(F)c(-c3nc4cc(Cl)ccc4s3)c12 [Example 140, 1-(2-(4-(5-Chlorobenzo[d]thiazol-2-yl)-5-fluoro-7-hydroxy-1′-neopentylspiro[indoline-3,4′-piperidin]-1-yl)phenyl)-3-(6-fluorobenzo[d]thiazol-2-yl)urea] | 52.4 | 0.6 |
| CC(C)(C)CN1CCC2(CC1)CN(c1ccccc1NC(=O)Nc1nc3ccc(Cl)cc3s1)c1c(O)cc(F)c(-c3nc4cc(Cl)ccc4s3)c12 [Example 141, 1-(6-Chlorobenzo[d]thiazol-2-yl)-3-(2-(4-(5-chlorobenzo[d]thiazol-2-yl)-5-fluoro-7-hydroxy-1′-neopentylspiro[indoline-3,4′-piperidin]-1-yl)phenyl)urea] | 33.9 | 0.9 |
| CC(C)(C)CN1CCC2(CC1)CN(c1ccccc1NC(=O)Nc1nc3ccc(Cl)nc3s1)c1c(O)ccc(-c3nc4ccc(F)cc4s3)c12 [Example 144, 1-(5-Chlorothiazolo[5,4-b]pyridin-2-yl)-3-(2-(4-(6-fluorobenzo[d]thiazol-2-yl)-7-hydroxy-1′-neopentylspiro[indoline-3,4′-piperidin]-1-yl)phenyl)urea] | 13 | 0.7 |
| CC(C)(C)CN1CCC2(CC1)CN(c1ccccc1NC(=O)Nc1nc3ccc(Cl)cc3s1)c1c(O)ccc(-c3nc4ccc(F)cc4s3)c12 [Example 145, 1-(6-Chlorobenzo[d]thiazol-2-yl)-3-(2-(4-(6-fluorobenzo[d]thiazol-2-yl)-7-hydroxy-1′-neopentylspiro[indoline-3,4′-piperidin]-1-yl)phenyl)urea] | 18.4 | 0.6 |
| COc1ccc2nc(NC(=O)Nc3ccccc3N3CC4(CCN(CC(C)(C)C)CC4)c4c(-c5nc6cc(F)ccc6s5)ccc(O)c43)sc2c1 [Example 146, 1-(2-(4-(5-Fluorobenzo[d]thiazol-2-yl)-7-hydroxy-1′-neopentylspiro[indoline-3,4′-piperidin]-1-yl)phenyl)-3-(6-methoxybenzo[d]thiazol-2-yl)urea] | 11.2 | 0.6 |
| CC(C)(C)CN1CCC2(CC1)CN(c1ccccc1NC(=O)Nc1ccc(OC(F)(F)F)cc1)c1c(O)cc(F)c(-c3nc4ccc(F)cc4s3)c12 [Example 147, 1-(2-(5-Fluoro-4-(6-fluorobenzo[d]thiazol-2-yl)-7-hydroxy-1′-neopentylspiro[indoline-3,4′-piperidin]-1-yl)phenyl)-3-(4-(trifluoromethoxy)phenyl)urea] | 14.8 | 0.5 |
| CC(C)(C)CN1CCC2(CC1)CN(c1ccccc1NC(=O)Nc1nc3ccc(Cl)cc3s1)c1c(O)ccc(-c3nc4cc(Cl)ccc4s3)c12 [Example 149, 1-(6-Chlorobenzo[d]thiazol-2-yl)-3-(2-(4-(5-chlorobenzo[d]thiazol-2-yl)-7-hydroxy-1′-neopentylspiro[indoline-3,4′-piperidin]-1-yl)phenyl)urea] | 26.8 | 0.9 |
| COc1ccc2nc(NC(=O)Nc3ccccc3N3CC4(CCN(CC(C)(C)C)CC4)c4c(-c5nc6cc(Cl)ccc6s5)ccc(O)c43)sc2c1 [Example 150, 1-(2-(4-(5-Chlorobenzo[d]thiazol-2-yl)-7-hydroxy-1′-neopentylspiro[indoline-3,4′-piperidin]-1-yl)phenyl)-3-(6-methoxybenzo[d]thiazol-2-yl)urea] | 33.4 | 0.9 |
| CC(C)(C)CN1CCC2(CC1)CN(c1ccccc1NC(=O)Nc1nc3ccc(Cl)nc3s1)c1c(O)cc(F)c(-c3ccc(F)cc3)c12 [Example 152] | 10.2 | 0.2 |
| CC(C)(C)CN1CCC2(CC1)CN(c1ccccc1NC(=O)Nc1ccc(OC(F)(F)F)cc1)c1c(O)c(F)cc(-c3ccc(F)cc3)c12 [Example 153, 1-(2-(6-Fluoro-4-(4-fluorophenyl)-7-hydroxy-1′-neopentylspiro[indoline-3,4′-piperidin]-1-yl)phenyl)-3-(4-(trifluoromethoxy)phenyl)urea] | 11.5 | 0.4 |
| CC(C)(C)CN1CCC2(CC1)CN(c1ccccc1NC(=O)Nc1ccc(OC(F)(F)F)cc1)c1c(O)c(F)cc(-c3ccc(C(F)(F)F)cc3)c12 [Example 154, 1-(2-(6-Fluoro-7-hydroxy-1′-neopentyl-4-(4-(trifluoromethyl)phenyl)spiro[indoline-3,4′-piperidine]-1-yl)phenyl)-3-(4-(trifluoromethoxy)phenyl)urea] | 38.8 | 0.4 |
